According to patent US6737383B1, “Herbicidal oxadiazolidines” (priority 1999, dated 2004):

How the values were obtained:
cocklebur = assay: Test C postemergence cocklebur; assay type: in vivo, Xanthium strumarium; settings: 0 to 100 scale, 0 no effect, 100 complete control
Outline: (§1)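 Visual ratings on a 0 to 100 scale, where 0 means no effect and 100 complete control, were made versus untreated controls roughly 14 to 21 days after postemergence treatment. Test compounds were formulated in a non-phytotoxic solvent mixture containing a surfactant.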

common ragweed = assay: Test C postemergence common ragweed; assay type: in vivo, Ambrosia elatior; settings: 0 to 100 scale, 0 no effect, 100 complete control
Outline: as §1

ivyleaf morningglory = assay: Test C postemergence ivyleaf morningglory; assay type: in vivo, Ipomoea hederacea; settings: 0 to 100 scale, 0 no effect, 100 complete control
Outline: as §1

purple nutsedge = assay: Test C postemergence purple nutsedge; assay type: in vivo, Cyperus rotundus; settings: 0 to 100 scale, 0 no effect, 100 complete control
Outline: as §1

redroot pigweed [1] = assay: Test C postemergence redroot pigweed; assay type: in vivo, Amaranthus retroflexus; settings: 0 to 100 scale, 0 no effect, 100 complete control
Outline: as §1

soybean = assay: Test C postemergence soybean; assay type: in vivo, Glycine max; settings: 0 to 100 scale, 0 no effect, 100 complete control
Outline: as §1

deadnettle = assay: Test E deadnettle; assay type: in vivo, Lamium amplexicaule; settings: Postemergence; for Plant response rating, Deadnettle: 0 to 100 scale
Outline: (§2)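 Postemergence: 60:40 sandy loam/greenhouse potting mix, 1- to 4-leaf stage. Formulation: solvent plus surfactant. Assessment: visual comparison with untreated controls at ~21–28 days.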

galium = assay: Test E galium; assay type: in vivo, Galium aparine; settings: Postemergence; for Plant response rating, Galium: 0 to 100 scale
Outline: as §2

redroot pigweed [2] = assay: Test E redroot pigweed; assay type: in vivo, Amaranthus retroflexus; settings: Postemergence; for Plant response rating, Redroot pigweed: 0 to 100 scale
Outline: as §2

wild mustard = assay: Test E wild mustard; assay type: in vivo, Sinapis arvensis; settings: Postemergence; for Plant response rating, Wild mustard: 0 to 100 scale
Outline: as §2

guineagrass = assay: Test D guineagrass; assay type: in vivo, Panicum maximum; settings: Postemergence, 0 to 100 scale
annual bluegrass = assay: Test E annual bluegrass; assay type: in vivo, Poa annua; settings: Preemergence
downy brome = assay: Test E downy brome; assay type: in vivo, Bromus tectorum; settings: Preemergence
kochia = assay: Test E kochia; assay type: in vivo, Kochia scoparia; settings: Preemergence
lambsquarters = assay: Test E lambsquarters; assay type: in vivo, Chenopodium album; settings: Preemergence
redroot pigweed [3] = assay: Test E redroot pigweed; assay type: in vivo, Amaranthus retroflexus; settings: Preemergence
sunflower = assay: Test E sunflower; assay type: in vivo, Helianthus annuus; settings: Preemergence
[4] = Rate 125 g/ha, 0 is no effect, 100 is complete control
[5] = Rate 250 g/ha, 0 to 100 scale where 0 is no effect and 100 is complete control
[6] = Rate 500 g/ha, 0 is no effect, 100 is complete control
[7] = Rate 64 g/ha, 0 no injury, 100 complete control
[8] = Rate 125 g/ha, 0 to 100 scale (0 no effect, 100 complete control)
[9] = Rate 500 g/ha, 0 to 100 scale where 0 is no effect and 100 is complete control

In the case of `CC(C)N(C(=O)n1oc(=O)n(C2CC2)c1=O)c1ccc(F)cc1` [Compound 242], the “Plant response rating, Cocklebur” value (cocklebur; Rate 140 g/ha) is reported as 0, the “Plant response rating, Cocklebur” value (cocklebur; Rate 280 g/ha) is reported as 0 and the “Plant response rating, Cocklebur” value (cocklebur; Rate 560 g/ha) is reported as 0. For the same compound, the “Plant response rating, Cocklebur” value (cocklebur; Rate 1120 g/ha) was 20, the “Plant response rating Common ragweed” value (common ragweed; Rate 140 g/ha) was 0 and the “Plant response rating Common ragweed” value (common ragweed; Rate 280 g/ha) was 10. For the same compound, the “Plant response rating Common ragweed” value (common ragweed; Rate 560 g/ha) was 80, the “Plant response rating Common ragweed” value (common ragweed; Rate 1120 g/ha) was 80 and the “Plant response rating I. morningglory” value (ivyleaf morningglory; Rate 140 g/ha) was 0. For the same compound, the “Plant response rating I. morningglory” value (ivyleaf morningglory; Rate 280 g/ha) was 0, the “Plant response rating I. morningglory” value (ivyleaf morningglory; Rate 560 g/ha) was 0 and the “Plant response rating I. morningglory” value (ivyleaf morningglory; Rate 1120 g/ha) was 0. For the same compound, the “Plant response rating, Purple nutsedge” value (purple nutsedge; Rate 140 g/ha) was 0, the “Plant response rating, Purple nutsedge” value (purple nutsedge; Rate 280 g/ha) was 0 and the “Plant response rating, Purple nutsedge” value (purple nutsedge; Rate 560 g/ha) was 10. For the same compound, the “Plant response rating, Purple nutsedge” value (purple nutsedge; Rate 1120 g/ha) was 80, the “Plant response rating, Redroot pigweed” value (redroot pigweed [1]; Rate 140 g/ha) was 0 and the “Plant response rating, Redroot pigweed” value (redroot pigweed [1]; Rate 280 g/ha) was 0. The “Plant response rating, Redroot pigweed” value (redroot pigweed [1]; Rate 560 g/ha) was 10, the “Plant response rating, Redroot pigweed” value (redroot pigweed [1]; Rate 1120 g/ha) was 50 and the “Plant response rating, Soybean” value (soybean; Rate 140 g/ha) was 20. For the same compound, the “Plant response rating, Soybean” value (soybean; Rate 280 g/ha) was 25, the “Plant response rating, Soybean” value (soybean; Rate 560 g/ha) was 25 and the “Plant response rating, Soybean” value (soybean; Rate 1120 g/ha) was 65. The “Plant response rating, Deadnettle” value (deadnettle; Rate 62 g/ha) was 100, the “Plant response rating, Deadnettle” value (deadnettle; [4]) was 10 and the “Deadnettle plant response rating” value (deadnettle; [5]) was 10. The “Plant response rating, Deadnettle” value (deadnettle; [6]) was 50, the “Plant response rating, Galium” value (galium; Rate 62 g/ha) was 0 and the “Plant response rating, Galium” value (galium; [4]) was 20. The “Galium plant response rating” value (galium; [5]) was 30, the “Plant response rating, Galium” value (galium; [6]) was 40 and the “Plant response rating, Redroot pigweed” value (redroot pigweed [2]; Rate 62 g/ha) was 0. The “Plant response rating, Redroot pigweed” value (redroot pigweed [2]; [4]) was 0, the “Redroot pigweed plant response rating” value (redroot pigweed [2]; [5]) was 0 and the “Plant response rating, Redroot pigweed” value (redroot pigweed [2]; [6]) was 40. The “Plant response rating, Wild mustard” value (wild mustard; Rate 62 g/ha) was 0, the “Plant response rating, Wild mustard” value (wild mustard; [4]) was 20 and the “Wild mustard plant response rating” value (wild mustard; [5]) was 20. The “Plant response rating, Wild mustard” value (wild mustard; [6]) was 5, the “Plant response rating, Guineagrass” value (guineagrass; Rate 16 g/ha, 0 no injury, 100 complete control) was 0 and the “Plant response rating, Guineagrass” value (guineagrass; Rate 32 g/ha, 0 no injury, 100 complete control) was 100. For the same compound, the “Guineagrass plant response rating” value (guineagrass; [7]) was 80, the “Plant response rating, Guineagrass” value (guineagrass; [7]) was 0 and the “Plant response rating, Guineagrass” value (guineagrass; Rate 125 g/ha, 0 no injury, 100 complete control) was 100. The “Plant response rating, Guineagrass” value (guineagrass; Rate 250 g/ha) was 100, the “Plant response rating, Annual bluegras” value (annual bluegrass; [8]) was 100 and the “Annual bluegras plant response rating (0 to 100 scale)” value (annual bluegrass; Rate 250 g/ha) was 100. The “Plant response rating, Annual bluegras” value (annual bluegrass; [9]) was 100, the “Plant response rating, Downy brome” value (downy brome; [8]) was 70 and the “Downy brome plant response rating (0 to 100 scale)” value (downy brome; Rate 250 g/ha) was 100. The “Plant response rating, Downy brome” value (downy brome; [9]) was 100, the “Plant response rating, Kochia” value (kochia; [8]) was 35 and the “Kochia plant response rating (0 to 100 scale)” value (kochia; Rate 250 g/ha) was 50. For the same compound, the “Plant response rating, Kochia” value (kochia; [9]) was 60, the “Plant response rating Lambsquarters” value (lambsquarters; [8]) was 100 and the “Lambsquarters plant response rating (0 to 100 scale)” value (lambsquarters; Rate 250 g/ha) was 100. For the same compound, the “Plant response rating Lambsquarters” value (lambsquarters; [9]) was 100, the “Plant response rating, Redroot pigweed” value (redroot pigweed [3]; [8]) was 90 and the “Redroot pigweed plant response rating (0 to 100 scale)” value (redroot pigweed [3]; Rate 250 g/ha) was 100. For the same compound, the “Plant response rating, Redroot pigweed” value (redroot pigweed [3]; [9]) was 100, the “Plant response rating, Sunflower” value (sunflower; [8]) was 55 and the “Sunflower plant response rating (0 to 100 scale)” value (sunflower; Rate 250 g/ha) was 70. The “Plant response rating, Sunflower” value (sunflower; [9]) was 60.
